According to ChEMBL document CHEMBL1201862, “PubChem BioAssay data set” (2004):
Calls of active or inactive are those of the source.

Columns and labels:
[1] = M. tuberculosis H37Rv growth inhibitors, H37Rv strain (AID 1626); assay type: functional
[2] = molecular target: 5-hydroxytryptamine receptor 1A (Homo sapiens, UniProt P08908); assay type: functional
[3] = molecular target: T1, Carboxy-terminal domain RNA polymerase II polypeptide A small phosphatase 1 (Homo sapiens, UniProt Q9GZU7); assay: inhibitors of CTDSP1, concentration-response testing, biochemical assay, absorbance-based, actives from ultra-high-throughput screening (AID 540297); assay type: functional
T1 sequence (Q9GZU7 whole entry): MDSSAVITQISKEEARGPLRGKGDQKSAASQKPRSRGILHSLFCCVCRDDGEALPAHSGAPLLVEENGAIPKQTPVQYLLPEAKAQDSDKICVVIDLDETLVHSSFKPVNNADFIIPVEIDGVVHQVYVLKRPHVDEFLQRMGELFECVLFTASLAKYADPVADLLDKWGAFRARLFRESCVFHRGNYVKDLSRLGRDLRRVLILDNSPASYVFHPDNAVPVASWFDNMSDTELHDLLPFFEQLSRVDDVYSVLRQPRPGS

[4] = molecular target: Estrogen receptor beta (Homo sapiens, UniProt Q92731); assay: ERβ–SRC-3 coactivator interaction inhibitors, confirmation, orthogonal assay, biochemical, ELISA, streptavidin-HRP readout (AID 1060)
Estrogen receptor beta, sequence (Q92731 whole entry): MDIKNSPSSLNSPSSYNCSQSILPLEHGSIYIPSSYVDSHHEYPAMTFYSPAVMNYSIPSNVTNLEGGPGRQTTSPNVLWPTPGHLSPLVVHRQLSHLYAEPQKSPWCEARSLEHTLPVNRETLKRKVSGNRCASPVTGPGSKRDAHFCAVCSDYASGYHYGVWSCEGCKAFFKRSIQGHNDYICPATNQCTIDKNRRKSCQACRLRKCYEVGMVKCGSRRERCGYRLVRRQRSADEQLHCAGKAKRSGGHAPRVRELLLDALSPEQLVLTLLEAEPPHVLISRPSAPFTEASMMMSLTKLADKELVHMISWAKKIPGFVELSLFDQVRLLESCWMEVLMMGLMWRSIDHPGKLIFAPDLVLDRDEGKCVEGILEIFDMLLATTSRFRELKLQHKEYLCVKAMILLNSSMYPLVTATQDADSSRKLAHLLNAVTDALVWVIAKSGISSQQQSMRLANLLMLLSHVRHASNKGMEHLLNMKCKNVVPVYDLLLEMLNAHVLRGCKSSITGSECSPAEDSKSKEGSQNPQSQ

[5] = molecular target: Luciferin 4-monooxygenase (Photinus pyralis, UniProt P08659); assay: firefly luciferase enzyme inhibitors, dose response, biochemical, luminescence (AID 1891)
Luciferin 4-monooxygenase, sequence (P08659 whole entry): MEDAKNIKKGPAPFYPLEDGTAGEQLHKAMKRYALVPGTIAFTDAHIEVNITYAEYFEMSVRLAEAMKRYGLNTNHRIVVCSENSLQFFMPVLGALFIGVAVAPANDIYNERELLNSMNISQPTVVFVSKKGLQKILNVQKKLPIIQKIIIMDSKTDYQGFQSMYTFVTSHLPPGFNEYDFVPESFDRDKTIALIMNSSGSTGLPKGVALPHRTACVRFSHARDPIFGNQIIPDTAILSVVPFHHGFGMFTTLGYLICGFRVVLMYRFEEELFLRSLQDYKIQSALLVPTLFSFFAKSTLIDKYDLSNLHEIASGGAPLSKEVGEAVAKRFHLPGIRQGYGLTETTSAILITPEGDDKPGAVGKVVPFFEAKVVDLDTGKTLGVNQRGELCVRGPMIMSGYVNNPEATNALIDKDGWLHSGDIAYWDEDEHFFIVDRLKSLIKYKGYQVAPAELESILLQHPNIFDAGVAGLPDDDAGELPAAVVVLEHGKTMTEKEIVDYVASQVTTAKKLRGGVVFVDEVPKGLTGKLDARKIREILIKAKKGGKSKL

[6] = Luminescence Cell-Based Dose Confirmation HTS to Identify Inhibitors of Platelet Dense Granule Release. [Related pubchem assays: 1663 (Primary HTS), 1678 (Summary of Project)]; assay type: functional
[7] = Fluorescence Cell-Based Dose Response to Identify Inhibitors of Thrombin Receptor-Activating Peptide SFLLRN-Mediated P-Selectin Induction on Platelets. [Related pubchem assays: 1663 (Primary HTS), 1889 (retest at dose ), 1891 (counterscreen), 1678 (Project Summary)]; assay type: functional
[8] = molecular target: G-protein coupled receptor 183 (Homo sapiens, UniProt P32249); assay: SAR confirmation of small molecule antagonists of the EBI2 receptor via a luminescent beta-arrestin assa.; assay type: functional
G-protein coupled receptor 183, sequence (P32249 whole entry): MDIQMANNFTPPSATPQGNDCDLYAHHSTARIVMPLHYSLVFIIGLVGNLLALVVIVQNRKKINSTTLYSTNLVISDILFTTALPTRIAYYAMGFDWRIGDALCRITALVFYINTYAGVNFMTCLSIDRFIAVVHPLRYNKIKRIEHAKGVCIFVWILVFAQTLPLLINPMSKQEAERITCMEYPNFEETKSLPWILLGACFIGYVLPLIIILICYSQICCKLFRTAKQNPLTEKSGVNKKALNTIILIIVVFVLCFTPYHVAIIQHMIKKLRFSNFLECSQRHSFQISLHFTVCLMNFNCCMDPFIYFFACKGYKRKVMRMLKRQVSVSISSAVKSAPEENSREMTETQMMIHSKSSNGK

[9] = HepG2 cell cytotoxicity, dose response, cytotoxicity control, plate reader, dry powder samples (AID 1159569); assay type: functional, cell-based;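 note: inhibitor potency with signal falling toward the positive control level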
[10] = P. falciparum Dd2 growth inhibitors, dose response, SYBR Green, cherry-picked samples (AID 1159567); assay type: functional, cell-based
[11] = Plasmodium falciparum Dd2 Sybr green parasite growth Measured in Cell-Based and Microorganism Combination System Using Plate Reader - 2153-01_Inhibitor_Dose_DryPowder_Activity_Set3.; assay type: functional
[12] = P. falciparum Dd2 growth inhibitors, dose response, SYBR Green, dry powder samples (AID 1159566); assay type: functional, cell-based;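 note: potency for growth inhibition with lower SYBR green DNA signal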
[13] = P. falciparum 3D7-ScDHODH growth inhibitors, dose response, SYBR Green, dry powder samples (AID 1159570); assay type: functional, cell-based;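 note: parasite growth measured after 72 hours of compound exposure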
[14] = P. falciparum Dd2 growth inhibitors, dose response, SYBR Green, dry powder samples, set 9 (AID 1159568); assay type: functional, cell-based
[15] = HepG2 cell cytotoxicity, dose response, cytotoxicity control, cherry-picked samples (AID 1159577); assay type: functional, cell-based
[16] = P. falciparum ATP4 D1247Y mutant growth inhibitors, dose response, NITD609-resistant line, SYBR Green, dry powder (AID 1159571); assay type: functional, cell-based;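 note: parasites synchronized at ring stage by sorbitol before testing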
[17] = molecular target: T2, Coagulation factor XII (Homo sapiens, UniProt P00748); assay type: functional;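 note: activated factor XIIa alpha cleaving a fluorogenic AMC peptide substrate; inhibitor potency from loss of enzyme activity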
T2 sequence (P00748 whole entry): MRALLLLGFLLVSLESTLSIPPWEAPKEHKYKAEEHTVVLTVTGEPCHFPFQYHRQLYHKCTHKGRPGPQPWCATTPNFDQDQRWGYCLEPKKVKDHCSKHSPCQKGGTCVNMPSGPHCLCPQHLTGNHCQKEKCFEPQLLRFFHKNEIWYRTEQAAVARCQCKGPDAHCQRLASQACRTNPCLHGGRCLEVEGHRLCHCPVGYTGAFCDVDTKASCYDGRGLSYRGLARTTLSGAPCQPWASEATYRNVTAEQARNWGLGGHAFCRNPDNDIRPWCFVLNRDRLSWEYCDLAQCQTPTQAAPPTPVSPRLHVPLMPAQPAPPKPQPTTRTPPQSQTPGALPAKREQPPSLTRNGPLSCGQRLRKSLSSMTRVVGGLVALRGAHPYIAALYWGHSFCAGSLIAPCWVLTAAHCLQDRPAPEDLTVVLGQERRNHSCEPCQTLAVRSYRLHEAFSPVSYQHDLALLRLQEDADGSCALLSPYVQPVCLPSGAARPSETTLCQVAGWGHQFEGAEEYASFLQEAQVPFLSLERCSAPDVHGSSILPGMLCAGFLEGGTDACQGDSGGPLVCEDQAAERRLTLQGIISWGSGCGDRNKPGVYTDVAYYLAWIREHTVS

[18] = molecular target: Prothrombin (Homo sapiens, UniProt P00734); assay: Thrombin 1536 HTS Dose Response Confirmation. [Related pubchem assays: 1046 (Thrombin 1536 HTS; hits were confirmed in this assay)]; assay type: functional
[19] = Luminescent dose response cell-based high throughput screening assay for inhibitors of the Janus kinase 2 mutant JAK2V617F. [Related pubchem assays: 1446 (Primary screen.), 1521 (Confirmation assay.), 1486 (Counter screen.)]; assay type: functional
[20] = molecular target: T3, Heat shock factor protein 1 (Mus musculus, UniProt P38532); assay: HSF1 potentiators in luciferase reporter cells, confirmation, cell-based, NIH3T3, luminescence, dose retest (AID 435004); assay type: functional;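 note: stress induced by proteasome inhibitor MG132 added 30 min after compound; luciferase reporter driven by HSF1 response element in NIH3T3 cells; actives raise luminescence as potentiators of the MG132 stress response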
T3 sequence (P38532 whole entry): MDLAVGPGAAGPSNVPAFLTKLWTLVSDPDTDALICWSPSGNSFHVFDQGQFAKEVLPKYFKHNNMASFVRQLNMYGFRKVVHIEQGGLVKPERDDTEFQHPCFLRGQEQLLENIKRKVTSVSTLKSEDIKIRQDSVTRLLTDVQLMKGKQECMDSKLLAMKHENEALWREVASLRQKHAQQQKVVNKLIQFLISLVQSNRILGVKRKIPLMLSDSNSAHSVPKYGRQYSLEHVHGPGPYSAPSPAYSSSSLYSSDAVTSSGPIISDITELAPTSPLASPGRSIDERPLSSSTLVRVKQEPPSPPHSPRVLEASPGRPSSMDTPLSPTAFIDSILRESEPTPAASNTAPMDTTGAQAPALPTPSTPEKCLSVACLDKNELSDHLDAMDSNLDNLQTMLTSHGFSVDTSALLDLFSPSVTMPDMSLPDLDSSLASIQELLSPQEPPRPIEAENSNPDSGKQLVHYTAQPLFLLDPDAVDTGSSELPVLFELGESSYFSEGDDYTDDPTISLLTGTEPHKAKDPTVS

5-hydroxytryptamine receptor 1A, sequence (P08908 whole entry, the tested form may be a part): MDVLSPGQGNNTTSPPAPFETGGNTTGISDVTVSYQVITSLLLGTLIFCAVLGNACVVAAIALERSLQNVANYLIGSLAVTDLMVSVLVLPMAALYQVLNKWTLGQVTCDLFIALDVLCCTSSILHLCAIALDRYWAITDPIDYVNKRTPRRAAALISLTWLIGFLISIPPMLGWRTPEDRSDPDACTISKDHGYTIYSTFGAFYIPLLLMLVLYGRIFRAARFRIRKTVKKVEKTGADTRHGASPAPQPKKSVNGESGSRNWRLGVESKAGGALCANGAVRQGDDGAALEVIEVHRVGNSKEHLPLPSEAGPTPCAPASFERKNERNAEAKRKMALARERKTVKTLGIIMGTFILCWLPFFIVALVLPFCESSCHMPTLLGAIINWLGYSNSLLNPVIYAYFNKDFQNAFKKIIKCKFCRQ

## COc1ccc2nc(O)c(CN(C(=O)NC3CCCCC3)C3CCCCC3)cc2c1
[1]
  IC50: > 100 µM (active)

## CC(=O)Nc1ccc(S(=O)(=O)N(C)c2ccc(O)cc2)cc1
[2]
  EC50: > 50 µM (not active)

## N#CC1=C(N)n2c(s/c(=C\c3ccco3)c2=O)=C(C#N)C1c1ccco1 (configuration not stated)
[3]
  IC50: 3.44 µM (active)
[4]
  IC50: 1.92 µM (not active)

## CCOc1cc(/C=N/NC(N)=O)cc(Br)c1OCC(=O)Nc1ccccc1C
[5]
  EC50: > 112 µM (not active)
[6]
  EC50: 1.55 µM (active)
[7]
  EC50: < 1 µM (active)

## CC(C)c1ccc(S(=O)(=O)N2CCN(C(=O)/C=C/c3ccc(F)cc3)CC2)cc1
[8]
  IC50: 0.0243 µM (active)

## COc1ccccc1C#Cc1ccc([C@H]2[C@@H](C#N)N(C(=O)C3CCCC3)[C@H]2CO)cc1
[9]
  AC50: 23.8 µM (active)
[10]
  AC50: 0.873 µM (active)
[11]
  AC50: 1.16 µM (active)
[12]
  AC50: 0.474 µM (active)
[13]
  AC50: 0.715 µM (active)
[14]
  AC50: 0.493 µM (active)
[15]
  AC50: 34.1 µM (active)
[16]
  AC50: 0.808 µM (active)

## CCCC(=O)Nc1ccc2c(c1)OC[C@@H](C)N(Cc1ccc(F)cc1)C[C@@H](C)[C@H](OC)CN(C)C2=O
[9]
  AC50: 75.8 µM (active)
[10]
  AC50: 1.92 µM (active)
[11]
  AC50: 2.51 µM (active)
[12]
  AC50: 0.753 µM (active)
[13]
  AC50: 9.67 µM (active)
[16]
  AC50: 2.44 µM (active)

## O=C(/C=C/c1ccc(F)cc1)N1CCN(S(=O)(=O)C2=Cc3ccccc3CC2)CC1
[8]
  IC50: 0.00115 µM (active)

## COc1cccc(NC(=S)Nc2ccc(Br)cc2Cl)c1
[17]
  IC50: > 50 µM (inactive)
[18]
  IC50: > 50 µM (not active)

## Cc1cc(SCC(=O)N/N=C/c2ccc(O)c(O)c2)c(C)cc1Br
[19]
  IC50: 1.65 µM (active)
[20]
  EC50: > 260 µM (inactive)
